Laboratory results published in patent US12383624B2, “Cargo delivery system and composition comprising the same” (SEOUL NATIONAL UNIVERSITY R&DB FOUNDATION, priority 2018, dated 2025).

Test system: Bcl-2
Experiment: target protein degradation by immunoblotting (Experimental Example 6)
Format: cell-based, human
Conditions: HEK293T cell line, 24 hours
Method: In order to evaluate the target proteion degradation efficacy by Examples 14 to 33 according the disclosure, the following experiment was conducted.
First, as cell lines primarily expressing the target protein, Human kidney-derived cancer cells, HEK293T (ATCC, CRL-3216), human prostate-derived cancer cells, LNcap (Korean Cell Line Bank, Korean Cell Line Research Foundation, KCLB No. 80018), mouse embryonic fibroblast, MEF (ATCC, SCRC-1008), human cervical cancer cells, HeLa (Korean Cell Line Bank, Korean Cell Line Research Foundation, KCLB No. 10002), human blood-derived cells, K562 (Korean Cell Line Bank, Korean Cell Line Research Foundation, KCLB No. 10243), human blood-derived cells, THP-1 (Korean Cell Line Bank, Korean Cell Line Research Foundation, KCLB No. 40202), human lung-derived cancer cells, A549 (Korean Cell Line Bank, Korean Cell Line Research Foundation, KCLB No. 10185), human breast-derived cancer cells, MCF7 (Korean Cell Line Bank, Korean Cell Line Research Foundation, KCLB No. 30022), human neuroblastoma, SH-SY5Y cell lines (Korean Cell Line Bank, Korean Cell Line Research Foundation, KCLB No. 22266), human pancreatic cancer cells, PANC-1 (Korean Cell Line Bank, Korean Cell Line Research Foundation, KCLB No. 21469) were cultured, respectively, in an incubator maintained at 5% carbon dioxide, using DMEM containing 10% FBS and 1% streptomycin/penicillin, RPMI1640, or MEM medium, and then the respective cells were dispensed in 12-well plate. Additional incubation was performed for 24 hours to ensure that each cell completely fixed to the surface of the plate.
In order to confirm whether Compounds A to W of Examples 14 to 33 degrade the target protein respectively, the cultured cells were treated with the compound of each example for 24 hours and then collected.
In this case, HEK293T, which is human kidney-derived cancer cells, LNcap, which is human prostate-derived cancer cells, and MEF cell line, which is mouse embryonic fibroblasts, were treated with Example 14 (Compound A). HEK293T, which is human kidney-derived cancer cells, was treated with Example 15 (Compound B). HEK293T cell line, which is human kidney-derived cancer cells, and HeLa cell line, which is cervical-derived cancer cells, were treated with Example 16 (Compound C). HEK293T cell line, which is human kidney-derived cancer cells, was treated with Example 17 (Compound D). K562 cell line, which is human blood-derived cells, was treated with Example 18 (Compound E). HEK293T cell line, which is human kidney-derived cancer cells, was treated with Example 19 (Compound F). THP-1 cell line, which is human blood-derived cells, was treated with Example 20 (Compound G). A549 cell line, which is human lung-derived cancer cells, was treated with Example 21 (Compound H). A549 cell line, which is human lung-derived cancer cells, was treated with Example 22 (Compound I). MCF7 cell line, which is human breast-derived cancer cells, was treated with Example 23 (Compound J). HEK293T cell line, which is […], was treated with Example 24 (Compound L). SH-SY5Y, which is human neuroblastoma, and HeLa cell line, which is cervical-derived cancer cells, were treated with Example 25 (Compound M). THP-1 cell line, which is human blood-derived cells, was treated with Example 26 (Compound P). SH-SY5Y, which is human neuroblastoma, and HeLa cell line, which is cervical-derived cancer cells, were treated with Example 27 (Compound Q). SH-SY5Y, which is human neuroblastoma, and HeLa cell line, which is cervical-derived cancer cells, were treated with Example 28 (Compound R). HeLa cell line, a human cervical-derived cancer cell, was treated with Example 29 (Compound S). SH-SY5Y cell line, which is human neuroblastoma, was treated with Example 30 (Compound T). SH-SY5Y cell line, which is human neuroblastoma, was treated with Example 31 (Compound U). PANC-1 cell line, which is human pancreatic-derived cancer cells, was treated with Example 32 (Compound V). […]

O=C(O)c1ccc2c(c1)nc(Nc1cc(Cl)cc(NCCOCCOCCOCCOCCOCCNC[C@@H](O)COc3ccc(OCc4ccc(F)cc4)c(OCc4ccc(F)cc4)c3)c1)c1ccncc12 [Example 24, (R)-5-((3-((21-(3,4-bis((4-fluorobenzyl)oxy)phenoxy)-20-hydroxy-3,6,9,12,15-pentaoxa-18-azahenicosyl)amino)-5-chlorophenyl)amino)benzo[c][2,6]naphthyridine-8-carboxylic acid]
degradation of target protein Bcl-2 (decrease in level vs Control): can be degraded
